Literature values, collected in patent publication US20170189443A1, “COMPOSITIONS AND METHODS FOR TREATMENT OF DISEASES AND CONDITIONS EMPLOYING ORAL ADMINISTRATION OF SODIUM PENTOSAN POLYSULFATE AND OTHER PENTOSAN POLYSULFATE SALTS” (URIGEN PHARMACEUTICALS, INC., priority 2014, published 2017).
Read-outs that look alike come from different tables or passages of the source.

Columns and labels:
interstitial cystitis [1] = conditions: intravesical instillations
interstitial cystitis [2] = conditions: intravesical
[3] = oral administration
[4] = tritiated pentosan polysulfate, healthy human volunteers, Simon et al. 2005

Molecule: C[S+](C)[O-] [DMSO, dimethylsulfoxide]
- IC patients treated with benefit (interstitial cystitis [1]): ~50%

Molecule: O=S(=O)(O)CCS [Mesnex, mesna]
- frequency of adverse events (all AEs) (IV): 85%
- frequency of adverse events (all AEs) (oral): 89%

Molecule: heparin
- patients treated in whom the agent is effective (interstitial cystitis [2]): approximately 50%

Molecule: sodium pentosan polysulfate
- oral availability [3]: 2-6%
- excreted through urine [4]: 6%
- excreted unchanged in feces [4]: more than 94%
